Reference: US20240400553A1, “AMINE BASED MATRIPTASE 2 INHIBITORS AND USES THEREOF” (Disc Medicine, Inc., priority 2023, published 2024)

target: T1, Human Recombinant Matriptase 2 (Homo sapiens, UniProt Q8IU80); test: Matriptase 2 inhibition, fluorescence based assay (Method I); type: biochemical; conditions: Table A; Ki of Matriptase-2; read-out: Mat-2 Ki
T1 construct: made in house
T1 sequence (Q8IU80 1-811): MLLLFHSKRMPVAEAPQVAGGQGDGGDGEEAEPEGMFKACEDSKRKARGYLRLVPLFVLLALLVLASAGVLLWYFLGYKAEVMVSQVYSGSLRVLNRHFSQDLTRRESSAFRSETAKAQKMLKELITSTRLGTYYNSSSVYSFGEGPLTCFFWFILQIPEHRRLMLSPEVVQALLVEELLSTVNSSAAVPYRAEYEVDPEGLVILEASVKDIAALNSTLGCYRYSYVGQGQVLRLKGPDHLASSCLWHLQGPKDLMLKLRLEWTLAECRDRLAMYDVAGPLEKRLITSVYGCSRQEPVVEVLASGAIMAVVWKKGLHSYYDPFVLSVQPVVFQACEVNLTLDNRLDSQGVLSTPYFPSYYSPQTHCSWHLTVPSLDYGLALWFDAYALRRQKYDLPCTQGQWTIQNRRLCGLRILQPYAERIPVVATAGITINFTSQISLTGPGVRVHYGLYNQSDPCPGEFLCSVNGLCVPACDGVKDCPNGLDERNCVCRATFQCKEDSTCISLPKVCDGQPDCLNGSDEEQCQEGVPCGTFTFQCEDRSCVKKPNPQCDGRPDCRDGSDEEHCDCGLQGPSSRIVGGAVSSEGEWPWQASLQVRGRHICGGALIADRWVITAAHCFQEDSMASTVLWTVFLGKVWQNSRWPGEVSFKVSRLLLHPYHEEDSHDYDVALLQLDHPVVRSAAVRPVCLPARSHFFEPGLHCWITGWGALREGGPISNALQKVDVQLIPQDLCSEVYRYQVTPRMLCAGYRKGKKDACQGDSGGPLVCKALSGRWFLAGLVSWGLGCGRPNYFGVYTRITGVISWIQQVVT
In short: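 Fluorogenic readout (Ex 360/Em 480 nm) taken 60 min after adding 62 μM Boc-Gln-Ala-Arg-AMC, following 30-min enzyme–compound preincubation at 25 °C. Conditions: 3.5 nM in-house enzyme, pH 7.5 Tris/NaCl/gelatin buffer, 1% DMSO; percent inhibition versus concentration fitted by variable-slope sigmoidal regression.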

Ki, ≤ 100 nM:
NCc1ccc2cc(C(=O)OCC3(CN)CC3)n(Cc3cc(NS(=O)(=O)Cc4ccccc4)cc4ccccc34)c2n1 [Compound 55, [1-(aminomethyl)cyclo-propyl]methyl 6-(amino-methyl)-1-{[3-(phenyl-methanesulfonamido)-naphthalen-1-yl]methyl}-1H-pyrrolo[2,3-b]pyr-idine-2-carboxylate]
NCc1ccc2cc(C(=O)OCCOCCN3CCCCC3)n(Cc3cc(NS(=O)(=O)Cc4ccccc4)cc4ccccc34)c2n1 [Compound 56, 2-[2-(piperidin-1-yl)-ethoxy]ethyl 6-(amino-methyl)-1-{[3-(phenyl-methanesulfonamido)-naphthalen-1-yl]methyl}-1H-pyrrolo[2,3-b]pyr-idine-2-carboxylate]
NCc1ccc2cc(C(N)=O)n(Cc3cc(NS(=O)(=O)Cc4ccccc4)cc4ccccc34)c2n1 [Compound 57, 6-(aminomethyl)-1-{[3-(phenylmethanesulfon-amido)naphthalen-1-yl]-methyl}-1H-pyrrolo[2,3-b]pyridine-2-carboxamide]
CN(C)CCOCCOC(=O)c1cc2ccc(CN)nc2n1Cc1cc(NS(=O)(=O)Cc2ccccc2)cc2ccccc12 [Compound 58, 2-[2-(dimethylamino)-ethoxy]ethyl 6-(amino-methyl)-1-{[3-(phenyl-methanesulfonamido)-naphthalen-1-yl]methyl}-1H-pyrrolo[2,3-b]pyr-idine-2-carboxylate]
NCc1ccc2cc(C(=O)OCC3CCN(C=O)CC3)n(Cc3cc(NS(=O)(=O)Cc4ccccc4)cc4ccccc34)c2n1 [Compound 59, (1-formylpiperidin-4-yl)-methyl 6-(aminomethyl)-1-{[3-(phenylmethane-sulfonamido)naphthalen-1-yl]methyl}-1H-pyr-rolo[2,3-b]pyridine-2-carboxylate]
NCc1ccc2cc(C(=O)NCCN3CCOCC3)n(Cc3cc(NS(=O)(=O)Cc4ccccc4)cc4ccccc34)c2n1 [Compound 60, 6-(aminomethyl)-N-[2-(morpholin-4-yl)ethyl]-1-{[3-(phenylmethane-sulfonamido)naphthalen-1-yl]methyl}-1H-pyr-rolo[2,3-b]pyridine-2-carboxamide]
Cn1ccc(COC(=O)c2cc3ccc(CN)nc3n2Cc2cc(NS(=O)(=O)Cc3ccccc3)cc3ccccc23)n1 [Compound 61, (1-methyl-1H-pyrazol-3-yl)methyl 6-(amino-methyl)-1-{[3-(phenyl-methanesulfonamido)-naphthalen-1-yl]methyl}-1H-pyrrolo[2,3-b]pyr-idine-2-carboxylate]
NCc1ccc2cc(C(=O)O)n(Cc3cc(NS(=O)(=O)Cc4ccccc4)cc4ccccc34)c2n1 [Compound 62, 6-(aminomethyl)-1-{[3-(phenylmethanesulfon-amido)naphthalen-1-yl]-methyl}-1H-pyrrolo[2,3-b]pyridine-2-carboxylic acid]
NCc1ccc2cc(C(=O)OCCN3CCCCC3)n(Cc3cc(NS(=O)(=O)Cc4ccccc4)cc4ccccc34)c2n1 [Compound 65, 2-(piperidin-1-yl)ethyl 6-(aminomethyl)-1-{[3-(phenylmethanesulfon-amido)naphthalen-1-yl]-methyl}-1H-pyrrolo[2,3-b]pyridine-2-carboxylate]
CNC(=O)c1cc2ccc(CN)nc2n1Cc1cc(NS(=O)(=O)Cc2ccccc2)cc2ccccc12 [Compound 66]
CC(=O)N1CCC(COC(=O)c2cc3ccc(CN)nc3n2Cc2cc(NS(=O)(=O)Cc3ccccc3)cc3ccccc23)CC1 [Compound 67, (1-acetylpiperidin-4-yl)-methyl 6-(aminomethyl)-1-{[3-(phenylmethane-sulfonamido)naphthalen-1-yl]methyl}-1H-pyr-rolo[2,3-b]pyridine-2-carboxylate]
Cn1nccc1COC(=O)c1cc2ccc(CN)nc2n1Cc1cc(NS(=O)(=O)Cc2ccccc2)cc2ccccc12 [Compound 68, (1-methyl-1H-pyrazol-5-yl)methyl 6-(amino-methyl)-1-{[3-(phenyl-methanesulfonamido)-naphthalen-1-yl]meth-yl}-1H-pyrrolo[2,3-b]-pyridine-2-carboxylate]
NCc1ccc2cc(C(=O)OCCN3CCCC3)n(Cc3cc(NS(=O)(=O)Cc4ccccc4)cc4ccccc34)c2n1 [Compound 69, 2-(pyrrolidin-1-yl)ethyl 6-(aminomethyl)-1-{[3-(phenylmethanesulfon-amido)naphthalen-1-yl]-methyl}-1H-pyrrolo[2,3-b]pyridine-2-carboxylate]
CC(C)n1cncc1COC(=O)c1cc2ccc(CN)nc2n1Cc1cc(NS(=O)(=O)Cc2ccccc2)cc2ccccc12 [Compound 70, [1-(propan-2-yl)-1H-imidazol-5-yl]methyl 6-(aminomethyl)-1-{[3-(phenylmethanesulfon-amido)naphthalen-1-yl]-methyl}-1H-pyrrolo[2,3-b]pyridine-2-carboxylate]
CN(C)CCNC(=O)c1cc2ccc(CN)nc2n1Cc1cc(NS(=O)(=O)Cc2ccccc2)cc2ccccc12 [Compound 71, 6-(aminomethyl)-N-[2-(dimethylamino)ethyl]-1-{[3-(phenylmethane-sulfonamido)naphthalen-1-yl]methyl}-1H-pyr-rolo[2,3-b]pyridine-2-carboxamide]
NCc1ccc2cc(C(=O)OC[C@H]3CCCCN3)n(Cc3cc(NS(=O)(=O)Cc4ccccc4)cc4ccccc34)c2n1 [Compound 72, [(2R)-piperidin-2-yl]-methyl 6-(aminomethyl)-1-{[3-(phenylmethane-sulfonamido)naphthalen-1-yl]methyl}-1H-pyr-rolo[2,3-b]pyridine-2-carboxylate]
CC(C)n1ccnc1COC(=O)c1cc2ccc(CN)nc2n1Cc1cc(NS(=O)(=O)Cc2ccccc2)cc2ccccc12 [Compound 74, [1-(propan-2-yl)-1H-imidazol-2-yl]methyl 6-(aminomethyl)-1-{[3-(phenylmethanesulfon-amido)naphthalen-1-yl]-methyl}-1H-pyrrolo-[2,3-b]pyridine-2-car-boxylate]
COC(=O)NCCOC(=O)c1cc2ccc(CN)nc2n1Cc1cc(NS(=O)(=O)Cc2ccccc2)cc2ccccc12 [Compound 75, 2-[(methoxycarbonyl)-amino]ethyl 6-(amino-methyl)-1-{[3-(phenyl-methanesulfonamido)-naphthalen-1-yl]methyl}-1H-pyrrolo[2,3-b]pyr-idine-2-carboxylate]
CNCCNC(=O)c1cc2ccc(CN)nc2n1Cc1cc(NS(=O)(=O)Cc2ccccc2)cc2ccccc12 [Compound 76, 6-(aminomethyl)-N-[2-(methylamino)ethyl]-1-{[3-(phenylmethane-sulfonamido)naphthalen-1-yl]methyl}-1H-pyr-rolo[2,3-b]pyridine-2-carboxamide]
NCc1ccc2cc(C(=O)OCCN3CCS(=O)(=O)CC3)n(Cc3cc(NS(=O)(=O)Cc4ccccc4)cc4ccccc34)c2n1 [Compound 77, 2-(1,1-dioxo-1-thio-morpholin-4-yl)ethyl 6-(aminomethyl)-1-{[3-(phenylmethanesulfon-amido)naphthalen-1-yl]-methyl}-1H-pyrrolo[2,3-b]pyridine-2-carboxylate]
NCc1ccc2cc(C(=O)NCCS(N)(=O)=O)n(Cc3cc(NS(=O)(=O)Cc4ccccc4)cc4ccccc34)c2n1 [Compound 78, 6-(aminomethyl)-1-{[3-(phenylmethanesulfon-amido)naphthalen-1-yl]-methyl}-N-(2-sulfamoyl-ethyl)-1H-pyrrolo[2,3-b]pyridine-2-carboxamide]
NCc1ccc2cc(C(=O)OCC3CCOCC3)n(Cc3cc(NS(=O)(=O)Cc4ccccc4)cc4ccccc34)c2n1 [Compound 79, (oxan-4-yl)methyl 6-(aminomethyl)-1-{[3-(phenylmethanesulfon-amido)naphthalen-1-yl]-methyl}-1H-pyrrolo[2,3-b]pyridine-2-carboxylate]
CN(C)C(=O)OCCOC(=O)c1cc2ccc(CN)nc2n1Cc1cc(NS(=O)(=O)Cc2ccccc2)cc2ccccc12 [Compound 80, 2-[(dimethylcarbamoyl)-oxy]ethyl 6-(aminometh-yl)-1-{[3-phenylmethane-sulfonamido)naphthalen-1-yl]methyl}-1H-pyr-rolo[2,3-b]pyridine-2-carboxylate]
NCc1ccc2cc(C(=O)OCc3cccnc3)n(Cc3cc(NS(=O)(=O)Cc4ccccc4)cc4ccccc34)c2n1 [Compound 81, (pyridin-3-yl)methyl 6-(aminomethyl)-1-{[3-(phenylmethanesulfon-amido)naphthalen-1-yl]-methyl}-1H-pyrrolo[2,3-b]pyridine-2-carboxylate]
